How the values were obtained:
SB.mhdgc-1 = test: AC50 for growth inhibition (viability) (log10 M); higher = less potent; details: SB.mhdgc-1 (hereditary c.1380delA CDH1 gastric cancer)
Outline: (§1)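 Values are log half-maximal activity concentrations from four-parameter fits of DMSO-normalised viability, restricted to high-quality curve classes. Patient-derived gastric cancer cells, hereditary or sporadic, were plated at 500 cells per 1536 well in 5 μL medium and given 23 nL compound in DMSO by pintool across 11 threefold dilutions, the top final concentration being 46 μM. Viability was read by ViewLux luminescence after 48 h and a 30 min CellTiter-Glo step at room temperature.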

SB.msgc-1 = test: as above; details: SB.msgc-1 (sporadic gastric cancer)
Outline: as §1

Compound	AC50 for growth inhibition (log10 M) (SB.mhdgc-1)	AC50 for growth inhibition (log10 M) (SB.msgc-1)
O=[S+]([O-])(NCCNC/C=C/c1ccc(Br)cc1)c1cccc2cnccc12 [H-89]	-4.88	-4.73
C[C@]\12CC[C@H](O)CC1=C/CC3C2CC[C@@]\4(C)C3C\C=C4[N]5C=NC6=C5C=CC=C6 (some centres not stated) [Galeterone]	-4.68	-4.68
CNC(=O)[C@H](Cc1ccccc1)NC(=O)[C@H](CC(C)C)[C@H](CSc1cccs1)C(=O)NO [Batimastat]	-4.68	-4.93
Nc1ncnc2c1c(-c1cnc3[nH]ccc3c1)nn2C1CCCC1 [PP-121]	-5.78	-5.38
N#Cc1c(NC(=O)c2cccc3ccccc23)sc2c1CCCC2 [TCS JNK 5a]	-5.88	-5.98
COc1ccc([S+](=O)([O-])Nc2cccnc2Nc2ccc(O)cc2)cc1 [E-7010]	-5.83	-6.93
Cc1[nH]c(/C=C2\C(=O)Nc3ccccc32)c(C)c1CCC(=O)O [Orantinib]	-6.48	-5.13
CN(C)C1=CC=C(C=C1)C(C2=CC=C(C=C2)N(C)C)=C/3\C=C/C(/C=C3)=[N+](C)C [Methylrosaniline chloride]	-6.03	-5.78
NCC(=O)Nc1ccc(-n2nc(C(F)(F)F)cc2-c2ccc3c(ccc4ccccc43)c2)cc1	-4.68	-4.63
CC1(C)CC(=O)c2c(C(F)(F)F)nn(-c3ccc(C(N)=O)c(NC4CCC(OC(=O)CN)CC4)c3)c2C1 (configuration not stated) [SNX-5422]	-6.58	-7.13
CC(C)n1cnc2c(NCCc3ccc(O)cc3)nc(-c3csc4ccccc34)nc21 [StemRegenin 1]	-5.78	-4.88
CC1(C)S[C@H]2[C@H](NC(=O)[C@@H](N)C3=CC=C(O)C=C3)C(=O)[N@]2[C@H]1C(O)=O [Amoxicillin sodium]	-5.53	-5.08
COC(=O)Nc1nc2cc(Sc3ccccc3)ccc2[nH]1 [Fenbendazole]	-6.63	-5.53
CN(C)CC(C)(C)CNc1nn2c(-c3ccccc3)nnc2cc1C1CCC1 [Akt-I-1]	-6.33	-4.68
CC[C@@]1(O)C(=O)OC\C2=C1\C=C\3N(CC4=C3N=C5C=CC=CC5=C4)C2=O [Camptothecin]	-7.93	-7.43
CN[C@@H](C)C(=O)N[C@H]1CN(C(=O)CC(C)C)CC[C@H]2CC[C@@H](C(=O)NC(c3ccccc3)c3ccccc3)N2C1=O [AT-406]	-5.63	-4.98
O=C/1NC(=O)C(=C1C2=CN=C3C=CC=C[N]23)/C4=C[N]5CCN(CC6=C5C4=CC=C6)C(=O)N7CCOCC7 [GSK3 Inhibitor]	-5.93	-4.63
CN1C(=O)\C(=C/C(=C1/NC2=C(F)C=C(I)C=C2)C(=O)NOCCO)C [AZD-8330]	-4.78	-7.58
NC(=O)Nc1cc(-c2ccc(CN3CCOCC3)cc2)sc1C(N)=O [AZ-TAK1 Inhibitor]	-4.68	-4.73
COc1cc2nc(-c3ccc(N4CCN(C)CC4)cc3)nc(NCCN3CCOCC3)c2cc1OC	-5.28	-6.78
O=C1\C=C(/OC2=C1C=CC=C2C3=CC=CC=C3)N4CCOCC4	-5.18	-4.73
OC[C@H]1O[C@@H](Oc2ccc(O)cc2)[C@H](O)[C@@H](O)[C@@H]1O [Arbutin]	-4.93	-4.78
COc1cc2c(Nc3ccc(Br)cc3F)ncnc2cc1OCC1CCN(C)CC1 [Vandetanib]	-4.68	-4.73
Cc1ccc([S+](=O)([O-])Nc2cc(Cl)ccc2C(=O)Nc2nc(-c3ccccc3)cs2)cc1	-4.68	-5.28
Oc1cccc(-c2nc(N3CCOCC3)c3oc4ncccc4c3n2)c1 [PI-103]	-6.12	-4.92
CC(C)n1cnc2c(NCCCCCCNC(=O)OC(C)(C)C)nc(NCCO)nc21 [CK59]	-4.93	-5.23

Reference: the supplement of paper PMC5412046
